Reference: US20230301972A1, “ANTI-FIBROTIC COMPOSITION AND RELATED METHODS” (Fred Hutchinson Cancer Center, priority 2020, published 2023)

Experiments:
VEGFR = assay: Kinome-profiling, VEGFR; format: biochemical; details: at 500 nM
mouse lung fibroblasts = assay: qPCR of TGF-β-induced gene expression in mouse primary lung fibroblasts; format: cell-based; details: TGF-β 5 ng/ml, 24 hours
Description: (§1) IPF-LL29, IPF-LL97A, and human lung fibroblast LL47 cell lines were purchased from ATCC. Mouse lung fibroblasts were isolated from the lungs of male C57BL/6J mice. Cells were grown at 37° C. under 5% CO2, 95% ambient atmosphere and maintained in Dulbecco's […] (DMEM) supplemented with 10% FBS (Sigma) and 1% Penn Strep.
FIGS. 3A and 3B. Human lung fibroblast LL47 and mouse primary lung fibroblasts isolated from mouse lungs were incubated with TGF-β alone at 5 ng/ml or TGF-β with indicated drugs for 24 hours. Same method as outlined in FIGS. 2A and 2B was used to measure the mRNA expression of indicated human or mouse genes.

[1] = cited from earlier work
LL47 cells = assay: Real-time wound healing assay (Incucyte) in lung fibroblasts; format: cell-based; details: dose-dependent; human lung fibroblasts
Description: FIG. 5A: LL47 cells were plated on 96-well plates (Essen Image Lock, Essen Instruments). […] Wound closure was monitored with Incucyte Live-Cell Imaging System and software (Essen Instruments) every 2-4 hours for 72 hours. The mean relative wound density of at least three biological replicates was calculated. The wound density correlates with the cell motility.

[2] = test system: IPF-LL29 and IPF-LL97A cells; assay: qPCR of TGF-β-induced gene expression in IPF-LL29 and IPF-LL97A cells; format: cell-based, human; details: human lung fibroblast cell lines derived from IPF patients
Description: as §1
FIGS. 2A and 2B. IPF-29 (FIG. 2A) or IPF-97A (FIG. 2B) cells were incubated with TGF-β alone at 5 ng/ml or TGF-β with indicated drugs for 48 hours and 5 days. Total cellular RNA was isolated using a RNeasy Mini Kit (QIAGEN). 1 μg of total RNA was reverse transcribed into first-strand cDNA using an RT2 First Strand Kit (QIAGEN). The resultant cDNA was subjected to qPCR using indicated human primers to measure the changes in mRNA expression of indicated human genes.

TGFBR1/2 = assay: Kinome-profiling, TGFBR1/2; format: biochemical; details: at 500 nM
[3] = test system: bleomycin-induced lung fibrosis; assay: Bleomycin-induced lung fibrosis mouse model; format: in vivo
Description: FIG. 6B: Male C57BL/6J mice between 7-10 week old were used in the study. A single dose of 50 IU of bleomycin was given to mouse lung via oropharyngeal aspiration to induce lung fibrosis. […] Mice were sacrificed on Day 28 after bleomycin treatment. Lungs were either snap frozen or fixed in 10% formalin and stained for H&E and Masson Trichrome.
FIG. 6C: H&E and Masson Trichrome staining were evaluated and scored by a board-certified veterinary pathologist.
(§2) FIG. 7A: Total protein was extracted from the snap frozen lung tissue in T-PER™ Tissue Protein Extraction Reagent by Omni Bead Ruptor homogenizer. Changes in collagen I and the phosphorylation levels of indicated proteins were detected in the lung homogenates from the bleomycin in vivo studies by reverse-phase protein array.
FIG. 7B: pSTAT3 levels were detected in the fixed lung tissue by immunohistochemistry. Intensity of staining was quantified by HALO imaging software.
(§3) FIG. 8: Total RNA was extracted from the snap frozen lung tissue in TRIzol™ Reagent by Omni Bead Ruptor homogenizer. 1 μg of total RNA was reverse transcribed into first-strand cDNA using an RT2 First Strand Kit (QIAGEN). The resultant cDNA was subjected to qPCR using indicated mouse primers to measure the changes in mRNA expression of indicated mouse genes.
A single dose of 25-50 IU of bleomycin was given to mouse lung via oropharyngeal aspiration to induce lung fibrosis. […] Lungs were processed and stained for H&E and Masson Trichrome.

CCl4-induced fibrosis = assay: Carbon tetrachloride (CCl4)-induced liver fibrosis mouse model; format: in vivo
Description: FIGS. 11A and 11B. Male C57BL/6J mice between 6-8 week old were used in the study. Mice were treated with intraperitoneal injection of 0.5 μl carbon tetrachloride (CCl4) per gram body weight, dissolved in corn oil at a ratio of 1:3, twice a week (Tuesdays and Saturdays) for 5.5 weeks or corn oil control only. […] At the end of the study, livers were either snap frozen or fixed in 10% formalin and stained for H&E, Masson Trichrome (FIG. 11A) and Ki67 (FIG. 11B).
as §3, with “Total” for “FIG. 8: Total”, “liver” for “lung”, “genes (FIG. 11A and FIG. 11C).” for “genes.”
as §2, with “12A:” for “7A:”, “liver” for “lung”, “in” for “in collagen I and”, “CCl4” for “bleomycin”
FIG. 12B: pSTAT3 levels were detected in the fixed […] tissue by immunohistochemistry. Intensity of staining was quantified by HALO imaging software.

SMAD2 phosphorylation = assay: Immunoblot of TGF-β-mediated SMAD2 phosphorylation in LX2 cells; format: cell-based, human
TGF-β = assay: Time course of TGF-β-induced phosphorylation of SMAD2 and ERK in IPF-LL29 cells (reverse-phase protein array); format: cell-based, human; details: 1 mM OSI-632 as printed, TGF-β 5 ng/ml
Description: as §1
FIG. 1B. […] At the end of the experiment, cells were lysed in 2% SDS lysis buffer. Protein levels of phosphorylated SMAD2 and ERK were detected in the cell lysates by reverse-phase protein array.

FGFR = assay: Kinome-profiling, FGFR; format: biochemical; details: at 500 nM

## NC(=O)c1c(OCc2c(F)cc(Br)cc2F)nsc1NC(=O)NCCCCN1CCCC1 [OSI-632, 3-(4-bromo-2,6-difluoro-benzyloxy)-5-[3-(4-pyrrolidin-1-yl-butyl)-ureido]-isothiazole-4-carboxylic acid amide]
VEGFR
  inhibition of VEGFR: ~75%
Mouse lung fibroblasts
  expression of indicated fibroblast activation and proliferation factors: inhibited expression
[1]; as sometimes observed with agents targeting VEGF/VEGFR
  bleeding and thrombosis toxicity: neither had toxicity issues of bleeding and thrombosis
[1]; in vivo
  adverse events in the liver: nor does it cause any adverse events in the liver
[1]; phases I and II trials for various cancers
  maximal tolerable dose: 200 mg/day
[1]; phases I and II trials, toxicities primarily low grade and readily managed
  safety and tolerability: safe and well-tolerated
LL47 cells
  motility (cell migration), real-time wound healing assay: potently decreased motility
[2]; 48 hours and 5 days
  TGF-β-induced expression of myofibroblast activation markers αSMA, COL1A1, COL3A1 and FN1: decreased
[2]; TGF-β 5 ng/ml
  expression of myofibroblast proliferation stimuli TGFB1, CTGF, IL-11, FGF2 and VEGFA: significant decrease
TGFBR1/2
  inhibition of TGFBR1/2: 91%
[3]; 50 mg/kg oral, once a day Monday to Friday for 2 weeks, mice
  lung fibrosis, scoring of H&E and Masson Trichrome staining by veterinary pathologist: significantly decreased lung fibrosis
[3]; bleomycin mouse model
  lung inflammation, scoring of H&E and Masson Trichrome staining: significantly decreased
[3]; bleomycin mouse model, OSI-632 treatment
  overall survival: 100%
[3]; vs bleomycin only treated mice, 50 mg/kg
  collagen deposition (Masson trichome staining): significant reduction
[3]; vs bleomycin-only treated mouse lung tissues, RPPA, IHC
  phosphorylation of Src, Erk, JNK, S6, Nfκβ, and pSTAT3 in lung: significantly decreased
[3]; vs bleomycin-only treated mouse lung tissues, RPPA, qPCR
  bleomycin-induced collagen levels and pro-fibrotic factors Fn1, IL-6 and IL-1b in lung: significantly decreased
CCl4-induced fibrosis; 80 mg/Kg thrice/week oral gavage, 3 weeks, mice, preliminary data
  carbon tetrachloride (CCl4)-induced fibrosis: significant decrease
CCl4-induced fibrosis; livers treated with OSI-632
  hepatocyte regeneration measured by Ki67 staining: increased hepatocyte regeneration
CCl4-induced fibrosis; mouse liver, qPCR
  CCl4-induced expression of HSC activation marker Acta2 and proliferation stimuli such as Tgfb2: reverse
  reversal of CCl4-induced expression of Loxl1: 2 fold
  reversal of CCl4-induced expression of Timp1: 5 fold
  reversal of CCl4-induced expression of Timp2: 2 fold
  reversal of CCl4-induced expression of Timp3: ~2 fold
CCl4-induced fibrosis; vs CCl4-only treated controls
  mRNA expression of Col1a1 (qPCR) and protein level of collagen 1 (RPPA), liver: significantly decreased
CCl4-induced fibrosis; vs CCl4 only treated mice
  collagen deposition (Masson trichome staining), liver: significant reduction
SMAD2 phosphorylation
  activation of TGF-β-mediated SMAD2 phosphorylation (immunoblot): blocks activation
TGF-β
  activity of TGF-β (measured by phosphorylation of SMAD2/3 and Erk): significantly decreased
FGFR
  inhibition of FGFR: 90%
